Data from patent publication US4546176A, “7-Carboxymethoxyphenylacetamido-3-cephem derivatives and antibacterial preparations containing the same” (Eisai Co., Ltd., priority 1982, dated 1985).
Converted amounts (≈) assume the structure as drawn.

Assays:
Type in all cases: cell-based
[1] = test system: Kleb. pneumoniae EK-6; assay: Antibacterial activities (MIC), Kleb. pneumoniae EK-6; conditions: Klebsiella pneumoniae, EK6
Text: (§1) (1) Antibacterial activities (MIC):

[2] = test system: Proteus morganii EP-14; assay: Antibacterial activities (MIC), Proteus morganii EP-14; conditions: Morganella morganii, EP14
Text: as §1

[3] = test system: Staph. aureus 209-P; assay: Antibacterial activities (MIC), Staph. aureus 209-P; conditions: Staphylococcus aureus
Text: as §1

[4] = test system: Ser. marcescens ES-75; assay: Antibacterial activities (MIC), Ser. marcescens ES-75; conditions: Serratia marcescens, ES75
Text: as §1

[5] = test system: Escher. coli NIHJ; assay: Antibacterial activities (MIC), Escher. coli NIHJ; conditions: Escherichia coli
Text: as §1

[6] = test system: Pseud. aeruginosa EP-01; assay: Antibacterial activities (MIC), Pseud. aeruginosa EP-01; conditions: Pseudomonas aeruginosa, EP01
Text: as §1

Compound | MIC [1] [µg/mL] | MIC [2] [µg/mL] | MIC [3] [µg/mL] | MIC [4] [µg/mL] | MIC [5] [µg/mL] | MIC [6] [µg/mL]
CCn1cc(C(=O)N[C@@H](C(=O)N[C@@H]2C(=O)N3C(C(=O)O)=C(COC(C)=O)CS[C@H]23)c2ccc(OCC(=O)O)cc2)c(=O)c2cc(O)c(O)cc21 [Example 35, Disodium 7β-[D-2-(4-carboxymethoxyphenyl)-2-(6,7-dihydroxy-1-ethyl-1,4-dihydro-4-oxoquinoline-3-carboxamido)acetamido]-3-acetoxymethyl-3-cephem-4-carboxylate] | ≤ 0.05 | 12.5 | 50 | 1.56 | 0.8 | 0.2
Cn1nnnc1SCC1=C(C(=O)O)N2C(=O)[C@@H](NC(=O)[C@H](NC(=O)c3cc4ccc(O)c(O)c4oc3=O)c3ccc(OCC(=O)O)cc3)[C@H]2SC1 [Example 10, 7β-[D-2-(4-Carboxymethoxyphenyl)-2-(7,8-dihydroxyphenyl)-2-(7,8-dihydroxy-2-oxo-2H-1-benzopyran-3-carboxamido)acetamido]-3-(1-methyl-5-tetrazolyl)-thiomethyl-3-cephem-4-carboxylic acid] | ≤ 0.05 | 3.13 (≈ 4.23 µM) | 12.5 (≈ 16.9 µM) | 0.1 (≈ 0.135 µM) | 0.4 (≈ 0.541 µM) | ≤ 0.05
CC(=O)Oc1ccc2c(=O)c(C(=O)N[C@@H](C(=O)N[C@@H]3C(=O)N4C(C(=O)O)=C(CSc5nnnn5CC(=O)O)CS[C@H]34)c3ccc(OCC(=O)O)cc3)coc2c1OC(C)=O [Example 16, 7β-[D-2-(4-carboxymethoxyphenyl)-2-(7,8-diacetoxy-4-oxo-4H-1-benzopyran-3-carboxamido)acetamido]-3-(1-carboxymethyl-5-tetrazolyl)thiomethyl-3-cephem-4-carboxylic acid] | 0.2 (≈ 0.23 µM) | 6.25 (≈ 7.2 µM) | 100 (≈ 115 µM) | 0.8 (≈ 0.922 µM) | 0.8 (≈ 0.922 µM) | 0.8 (≈ 0.922 µM)
CC(=O)OCC1=C(C(=O)O)N2C(=O)[C@@H](NC(=O)[C@H](NC(=O)c3c(C)oc4cc(O)c(O)cc4c3=O)c3ccc(OCC(=O)O)cc3)[C@H]2SC1 [Example 29, Disodium 7β-[D-2-(4-carboxymethoxyphenyl)-2-(6,7-dihydroxy-2-methyl-4-oxo-4H-1-benzopyran-3-carboxamido)acetamido]-3-acetoxymethyl-3-cephem-4-carboxylate] | ≤ 0.05 | 12.5 | 50 | 0.4 | 0.4 | 0.2
CN(C)CCn1nnnc1SCC1=C(C(=O)O)N2C(=O)[C@@H](NC(=O)[C@H](NC(=O)c3coc4cc(O)c(O)cc4c3=O)c3ccc(OCC(=O)O)cc3)[C@H]2SC1 [Example 14, Disodium 7β-[D-2-(4-carboxymethoxyphenyl)-2-(6,7-dihydroxy-4-oxo-4H-1-benzopyran-3-carboxamido)-acetamido]-3-[1-(2-N,N-dimethylaminoethyl)-5-tetrazolyl]-thiomethyl-3-cephem-4-carboxylate] | ≤ 0.05 | 3.13 | 25 | 0.2 | 0.4 | 0.1
CC(=O)Oc1ccc2c(=O)c(C(=O)N[C@@H](C(=O)N[C@@H]3C(=O)N4C(C(=O)O)=C(CSc5nnnn5CC(=O)O)CS[C@H]34)c3ccc(OCC(=O)O)cc3)c(C)oc2c1OC(C)=O [Example 23, 7β-[D-2-(4-Carboxymethoxyphenyl)-2-(7,8-diacetoxy-2-methyl-4-oxo-4H-1-benzopyran-3-carboxamido)-acetamido]-3-(1-carboxymethyl-5-tetrazolyl)thiomethyl-3-cephem-4-carboxylic acid] | ≤ 0.05 | 6.25 (≈ 7.09 µM) | 100 (≈ 113 µM) | 0.8 (≈ 0.907 µM) | 0.4 (≈ 0.454 µM) | 0.8 (≈ 0.907 µM)
Cn1nnnc1SCC1=C(C(=O)O)N2C(=O)[C@@H](NC(=O)[C@H](NC(=O)c3coc4c(O)c(O)ccc4c3=O)c3ccc(OCC(=O)O)cc3)[C@H]2SC1 [Example 9, 7β-[D-2-(4-Carboxymethoxyphenyl)-2-(7,8-dihydroxy-4-oxo-4H-1-benzopyran-3-carboxamido)acetamido]-3-(1-methyl-5-tetrazolyl)thiomethyl-3-cephem-4-carboxylic acid] | ≤ 0.05 | 1.56 (≈ 2.11 µM) | 25 (≈ 33.8 µM) | 0.2 (≈ 0.27 µM) | 0.4 (≈ 0.541 µM) | ≤ 0.05
CC(=O)Oc1cc2oc(C)c(C(=O)N[C@@H](C(=O)N[C@@H]3C(=O)N4C(C(=O)[O-])=C(C[n+]5ccc(C(N)=O)cc5)CS[C@H]34)c3ccc(OCC(=O)O)cc3)c(=O)c2cc1OC(C)=O [Example 56, 7β-[D-2-(4-Carboxymethoxyphenyl)-2-(6,7-diacetoxy-2-methyl-4-oxo-4H-1-benzopyran-3-carboxamido)acetamido]-3-(4-carbamoylpyridinium)methyl-3-cephem-4-carboxylate] | ≤ 0.05 | 6.25 (≈ 7.41 µM) | 25 (≈ 29.6 µM) | 0.8 (≈ 0.948 µM) | 0.8 (≈ 0.948 µM) | 0.2 (≈ 0.237 µM)
CC(=O)Oc1cc2oc(C)c(C(=O)N[C@@H](C(=O)N[C@@H]3C(=O)N4C(C(=O)O)=C(CSc5nnnn5CC(=O)O)CS[C@H]34)c3ccc(OCC(=O)O)cc3)c(=O)c2cc1OC(C)=O [Example 22, 7β-[D-2-(4-Carboxymethoxyphenyl)-2-(6,7-diacetoxy-2-methyl-4-oxo-4H-1-benzopyran-3-carboxamido)-acetamido]-3-(1-carboxymethyl-5-tetrazolyl)thiomethyl-3-cephem-4-carboxylic acid] | ≤ 0.05 | 3.13 (≈ 3.55 µM) | 100 (≈ 113 µM) | 0.1 (≈ 0.113 µM) | 0.2 (≈ 0.227 µM) | 0.2 (≈ 0.227 µM)
CC(=O)OCC1=C(C(=O)O)N2C(=O)[C@@H](NC(=O)[C@H](NC(=O)c3coc4cc(O)c(O)cc4c3=O)c3ccc(OCC(=O)O)cc3)[C@H]2SC1 [Example 1, 7β-[D-2-(4-Carboxymethoxyphenyl)-2-(6,7-dihydroxy-4-oxo-4H-1-benzopyran-3-carboxamido)-acetamido]-3-acetoxymethyl-3-cephem-4-carboxylic acid] | ≤ 0.05 | 6.25 (≈ 9.14 µM) | 25 (≈ 36.6 µM) | 0.2 (≈ 0.293 µM) | 0.2 (≈ 0.293 µM) | ≤ 0.05
Cc1nnc(SCC2=C(C(=O)O)N3C(=O)[C@@H](NC(=O)[C@H](NC(=O)c4coc5cc(O)c(O)cc5c4=O)c4ccc(OCC(=O)O)cc4)[C@H]3SC2)s1 [Example 6, Disodium 7β-[D-2-(4-carboxymethoxyphenyl)-2-(6,7-dihydroxy-4-oxo-4H-1-benzopyran-3-carboxamido)-acetamido]-3-[5-methyl-2-(1,3,4-thiadiazolyl)]-thiomethyl-3-cephem-4-carboxylate] | ≤ 0.05 | 1.56 | 3.13 | 0.2 | 0.8 | ≤ 0.05
CC(=O)OCC1=C(C(=O)O)N2C(=O)[C@@H](NC(=O)[C@H](NC(=O)c3coc4c(OC(C)=O)c(OC(C)=O)ccc4c3=O)c3ccc(OCC(=O)O)cc3)[C@H]2SC1 [Example 17, 7β-[D-2-(4-Carboxymethoxyphenyl)-2-(7,8-diacetoxy-4-oxo-4H-1-benzopyran-3-carboxamido)acetamido]-3-acetoxymethyl-3-cephem-4-carboxylic acid] | ≤ 0.05 | 12.5 (≈ 16.3 µM) | 50 (≈ 65.1 µM) | 1.56 (≈ 2.03 µM) | 0.8 (≈ 1.04 µM) | 0.8 (≈ 1.04 µM)
CCOC(=O)Oc1cc2oc(C)c(C(=O)N[C@@H](C(=O)N[C@@H]3C(=O)N4C(C(=O)O)=C(COC(C)=O)CS[C@H]34)c3ccc(OCC(=O)O)cc3)c(=O)c2cc1OC(=O)OCC [Example 36] | ≤ 0.05 | 12.5 (≈ 14.8 µM) | 25 (≈ 29.7 µM) | 0.8 (≈ 0.95 µM) | 0.8 (≈ 0.95 µM) | 0.1 (≈ 0.119 µM)
